Measured values taken from patent US10688086B2, “Method for treating cancer with dihydropyridine calcium antagonist” (GERMARK BIOTECHNOLOGY CO., LTD, priority 2016, dated 2020).

Tests used:
[1] = system: patients having colorectal cancer; experiment: NHIRD statistical analysis of death/survival with vs without Amlodipine, colorectal cancer; assay type: in vivo, human
[2] = system: patients having breast cancer; experiment: NHIRD statistical analysis of death/survival with vs without Amlodipine, breast cancer; assay type: in vivo, human
[3] = system: patients having pancreatic cancer; experiment: NHIRD statistical analysis of death/survival with vs without Amlodipine, pancreatic cancer; assay type: in vivo, human
[4] = system: patients having bladder cancer; experiment: NHIRD statistical analysis of death/survival with vs without Amlodipine, bladder cancer; assay type: in vivo, human
Hep3B cells [5] = experiment: Cell metastasis (Transwell, Calcein AM fluorescence), Hep3B; assay type: cell-based; details: 10 μM, 48 or 72 hrs
Protocol: The HepG2 and Hep3B cells were separately cultured in an insert of the Transwell plate, then added with 10 μM Amlodipine and cultured for 48 or 72 hrs. The insert was placed in a serum-free DMEM medium containing […] Calcien AM. Fluorescent staining was carried out in a culture environment at 37° C. After about 45-60 min, the cells were scraped off with 0.05% Trypsin-EDTA, and the fluorescence intensity at a wavelength of 490 to 520 nm was measured.

Hep3B cells [6] = experiment: Cell invasion (Transwell, crystal violet), Hep3B; assay type: cell-based; details: 10 μM, 72 hrs
Protocol: The HepG2 and Hep3B cells were separately cultured in the insert of the Transwell plate, then added with 10 μM Amlodipine and cultured for 48 or 72 hrs. The cells on the inner surface of the insert were taken out, and the insert was placed in methanol and stained with a crystal violet solution. […] That is, Amlodipine is effective in slowing the progression of cancers, thereby achieving a therapeutic effect in the treatment of cancers.

[7] = system: patients with gastric cancer; experiment: NHIRD statistical analysis of death/survival with vs without Amlodipine, gastric cancer; assay type: in vivo, human
Protocol: In this example, statistical analysis was performed on the statistics of the effects of Amlodipine in the treatment of cancers, using data from the National Health Insurance Research Database (NHIRD) covering detailed healthcare data for the population in Taiwan. Then, the diagnostic data at the time of admission in the database and the database of patients with registered major injuries were used, and statistical analysis was performed using data from patients with gastric cancer.
The dose of Amlodipine used in Example 1 was at least 120 mg/30 days. Therefore, in order to obtain the minimum effective dose, the survival rate of patients treated with Amlodipine for days in 90 days after cancer diagnosis was further statistically analyzed.

HepG2 cells = experiment: Western blotting of apoptosis-related proteins, HepG2; assay type: cell-based; details: various concentrations, 24 hours
Protocol: The expression of apoptosis-related genes in each liver cancer cell line treated with various concentrations of Amlodipine for 24 hours were detected by Western blotting.

[8] = system: patients having liver cancer; experiment: NHIRD statistical analysis of death/survival with vs without Amlodipine, liver cancer; assay type: in vivo, human
[9] = system: patients having cervical cancer; experiment: NHIRD statistical analysis of death/survival with vs without Amlodipine, cervical cancer; assay type: in vivo, human
Hep3B cells [10] = experiment: Cell viability (WST-1 72 hrs; PI flow cytometry 48 hrs), Hep3B; assay type: cell-based
Protocol: Two liver cancer cell lines HepG2 and Hep3B were cultured. The medium used for the culture of the cells was DMEM medium containing 10% fetal bovine serum, 10,000 U/ml penicillin and 10,000 μg/ml streptomycin. The culture occurred in an environment at 37° C. with 5% CO2, and the medium was changed every 2-3 days during the culture. After the cells were cultured to about 70% confluence, they were treated with various concentrations of Amlodipine: 0, 1.5625, 3.125, 6.25, 12.5, 25, and 50 μM for various times: 48, and 72 hrs. After the experiment, the viability of each liver cancer cell line was observed and the cell viability and cell cycle were analyzed. The HepG2 and Hep3B cells treated with various concentrations of Amlodipine for 72 hrs were added to WST-1 reagent. After 330 minutes of reaction, the absorbance at a wavelength of 420-480 nm was measured. The HepG2 and Hep3B cells treated with various concentrations of Amlodipine for 48 hrs were scraped off with 0.05% Trypsin-EDTA, and then added to 2 mg/ml PI solution. The cell viability was analyzed by flow cytometry.

[11] = 24/30: Amlodipine at least 24 days within 30 days after cancer diagnosis
[12] = 48/60: Amlodipine at least 48 days within 60 days after cancer diagnosis
[13] = Amlodipine for 20 days within 90 days after diagnosis
[14] = 72/90: Amlodipine at least 72 days within 90 days after cancer diagnosis

Compound: CCOC(=O)C1=C(COCCN)NC(C)=C(C(=O)OC)C1c1ccccc1Cl (stereo not drawn) [Amlodipine]
- Crude HR HRs (95% C.I.) [1, 11]: 0.46 (0.44-0.49)
- Crude HR HRs (95% C.I.) [1, 12]: 0.44 (0.42-0.47)
- Crude HR HRs (95% C.I.) [1, 13]: 0.76 (0.72-0.80)
- Crude HR HRs (95% C.I.) ([1]; day of treatment with Amlodipine 72/9): 0.44 (0.42-0.47)
- Crude HR HRs (95% C.I.) [2, 11]: 0.54 (0.50-0.59)
- Crude HR HRs (95% C.I.) [2, 12]: 0.53 (0.48-0.57)
- Crude HR HRs (95% C.I.) [2, 14]: 0.50 (0.46-0.55)
- Crude HR HRs (95% C.I.) [2, 13]: 0.91 (0.83-0.99)
- Crude HR HRs (95% C.I.) [3, 11]: 0.62 (0.51-0.75)
- Crude HR HRs (95% C.I.) [3, 12]: 0.63 (0.51-0.77)
- Crude HR HRs (95% C.I.) [3, 14]: 0.71 (0.57-0.88)
- Crude HR HRs (95% C.I.) [3, 13]: 0.77 (0.65-0.93)
- Crude HR HRs (95% C.I.) [4, 11]: 0.54 (0.50-0.59)
- Crude HR HRs (95% C.I.) [4, 12]: 0.55 (0.50-0.60)
- Crude HR HRs (95% C.I.) [4, 14]: 0.55 (0.50-0.61)
- Crude HR HRs (95% C.I.) [4, 13]: 0.82 (0.75-0.90)
- fluorescence intensity (cell metastasis) vs cells not treated with Amlodipine (Hep3B cells [5]): lower
- fluorescence intensity (cell invasion) vs cells not treated with Amlodipine (Hep3B cells [6]): lower
- Crude HR HRs (95% C.I.) [7, 11]: 0.43 (0.39-0.47)
- Crude HR HRs (95% C.I.) [7, 12]: 0.43 (0.39-0.48)
- Crude HR HRs (95% C.I.) [7, 14]: 0.42 (0.38-0.47)
- Crude HR HRs (95% C.I.) [7, 13]: 0.73 (0.66-0.80)
- intracellular expression of apoptotic proteins (Western blotting) (HepG2 cells): results in the intracellular expression of apoptotic proteins
- Crude HR HRs (95% C.I.) [8, 11]: 0.55 (0.53-0.59)
- Crude HR HRs (95% C.I.) [8, 12]: 0.54 (0.51-0.57)
- Crude HR HRs (95% C.I.) [8, 14]: 0.55 (0.52-0.58)
- Crude HR HRs (95% C.I.) [8, 13]: 0.73 (0.69-0.77)
- Crude HR HRs (95% C.I.) [9, 11]: 0.50 (0.46-0.55)
- Crude HR HRs (95% C.I.) [9, 12]: 0.51 (0.46-0.56)
- Crude HR HRs (95% C.I.) [9, 14]: 0.46 (0.42-0.51)
- Crude HR HRs (95% C.I.) [9, 13]: 1.00 (0.89-1.11)
- Amlodipine concentration at which the best inhibitory effect on the growth of liver cancer cells is achieved (Hep3B cells [10]): greater than or equal to 12.5 μM
- cell viability of liver cancer cells treated with Amlodipine (Hep3B cells [10]; 1.5625-50 μM, 48 and 72 hrs, FIGS. 10, 13-15): decreased
